Data as given in patent US20120122860A1, “SOLID FORMS OF SULFONAMIDES AND AMINO ACIDS” (Plexxikon, Inc., priority 2009, published 2012).

How the values were obtained:
[1] = target: B-Raf V600E (Homo sapiens, UniProt P15056, V600E); assay: Kinase activity assay, B-Raf V600E; type: biochemical; conditions: read-out: activity toward kinase B-Raf V600E, IC50
[2] = target: TrkA (Homo sapiens, UniProt P04629); assay: Kinase activity assay, TrkA
[3] = target: Btk (Homo sapiens, UniProt Q06187); assay: Kinase activity assay, Btk
[4] = target: Kdr (Homo sapiens, UniProt P35968); assay: Kinase activity assay, Kdr
[5] = target: Kit (Homo sapiens, UniProt P10721); assay: Kinase activity assay, Kit
[6] = target: B-Raf (Homo sapiens, UniProt P15056); assay: Kinase activity assay, B-Raf; type: biochemical; conditions: read-out: activity toward kinase B-Raf, IC50
[7] = target: Src (Homo sapiens, UniProt P12931); assay: Kinase activity assay, Src
[8] = target: Fms (Homo sapiens, UniProt P07333); assay: Kinase activity assay, Fms
[9] = target: C-Raf (Homo sapiens, UniProt P04049); assay: Kinase activity assay, C-Raf
[10] = target: MAP4K4 (Homo sapiens, UniProt O95819); assay: Kinase activity assay, MAP4K4
[11] = target: T1, A-Raf (Homo sapiens, UniProt P10398); assay: Kinase activity assay, A-Raf
T1 sequence (P10398 1-606): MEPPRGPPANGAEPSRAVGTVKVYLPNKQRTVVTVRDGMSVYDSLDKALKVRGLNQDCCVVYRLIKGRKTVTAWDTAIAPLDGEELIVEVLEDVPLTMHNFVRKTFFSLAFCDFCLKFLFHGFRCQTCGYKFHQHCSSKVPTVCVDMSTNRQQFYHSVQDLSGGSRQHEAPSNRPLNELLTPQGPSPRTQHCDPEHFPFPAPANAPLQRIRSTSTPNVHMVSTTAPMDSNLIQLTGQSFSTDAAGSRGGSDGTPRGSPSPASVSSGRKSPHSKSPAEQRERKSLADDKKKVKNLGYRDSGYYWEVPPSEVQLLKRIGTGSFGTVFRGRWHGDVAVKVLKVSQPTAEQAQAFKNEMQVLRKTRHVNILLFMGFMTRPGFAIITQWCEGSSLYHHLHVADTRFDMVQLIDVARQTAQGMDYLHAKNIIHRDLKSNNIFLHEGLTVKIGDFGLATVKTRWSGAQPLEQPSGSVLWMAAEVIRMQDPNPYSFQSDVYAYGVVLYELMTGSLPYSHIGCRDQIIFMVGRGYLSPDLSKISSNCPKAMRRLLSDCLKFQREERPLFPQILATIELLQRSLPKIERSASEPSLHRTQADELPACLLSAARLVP

[12] = target: T2, TEC (Homo sapiens, UniProt P42680); assay: Kinase activity assay, TEC
T2 sequence (P42680 1-631): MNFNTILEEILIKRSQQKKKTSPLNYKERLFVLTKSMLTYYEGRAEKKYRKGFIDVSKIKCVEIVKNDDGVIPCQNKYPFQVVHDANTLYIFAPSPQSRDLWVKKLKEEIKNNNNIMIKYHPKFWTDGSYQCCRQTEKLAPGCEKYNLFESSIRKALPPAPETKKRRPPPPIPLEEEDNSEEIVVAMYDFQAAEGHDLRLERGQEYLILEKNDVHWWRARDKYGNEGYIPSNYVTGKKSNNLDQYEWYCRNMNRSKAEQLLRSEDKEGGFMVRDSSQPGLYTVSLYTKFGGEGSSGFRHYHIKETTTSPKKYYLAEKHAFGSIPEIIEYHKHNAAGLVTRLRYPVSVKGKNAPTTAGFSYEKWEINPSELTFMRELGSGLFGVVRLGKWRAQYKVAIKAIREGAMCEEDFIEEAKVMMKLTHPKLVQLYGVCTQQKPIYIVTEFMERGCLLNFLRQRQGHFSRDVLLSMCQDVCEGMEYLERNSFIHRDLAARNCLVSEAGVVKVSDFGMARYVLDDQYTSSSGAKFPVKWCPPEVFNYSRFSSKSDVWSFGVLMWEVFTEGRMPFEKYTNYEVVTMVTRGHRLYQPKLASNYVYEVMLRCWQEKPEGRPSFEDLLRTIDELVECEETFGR

[13] = target: PI3Kα (Homo sapiens, UniProt P42336); assay: Kinase activity assay, PI3Kα
[14] = target: Flt1 (Homo sapiens, UniProt P17948); assay: Kinase activity assay, Flt1

Measured: IC50

TrkA, sequence (P04629 33-796): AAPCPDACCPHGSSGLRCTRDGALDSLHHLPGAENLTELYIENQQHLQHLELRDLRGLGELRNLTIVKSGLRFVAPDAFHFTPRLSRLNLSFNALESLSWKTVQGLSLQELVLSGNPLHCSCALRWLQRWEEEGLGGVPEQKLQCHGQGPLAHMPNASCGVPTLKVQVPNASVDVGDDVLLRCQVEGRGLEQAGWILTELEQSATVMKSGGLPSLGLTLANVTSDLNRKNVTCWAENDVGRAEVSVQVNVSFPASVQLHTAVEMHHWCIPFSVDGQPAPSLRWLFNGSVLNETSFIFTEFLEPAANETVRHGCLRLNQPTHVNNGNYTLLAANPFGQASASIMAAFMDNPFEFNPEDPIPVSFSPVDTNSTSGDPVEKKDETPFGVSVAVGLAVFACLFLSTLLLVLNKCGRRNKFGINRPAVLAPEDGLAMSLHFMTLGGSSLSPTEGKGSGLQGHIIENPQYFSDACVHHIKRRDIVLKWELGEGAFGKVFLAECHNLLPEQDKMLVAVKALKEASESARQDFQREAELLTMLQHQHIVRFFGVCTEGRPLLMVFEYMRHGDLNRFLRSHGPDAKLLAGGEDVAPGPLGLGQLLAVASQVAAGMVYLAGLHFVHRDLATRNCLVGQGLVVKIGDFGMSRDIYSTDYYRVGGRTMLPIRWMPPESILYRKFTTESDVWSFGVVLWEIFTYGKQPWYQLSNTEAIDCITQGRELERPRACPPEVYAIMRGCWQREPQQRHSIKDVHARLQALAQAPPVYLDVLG
Kdr, sequence (P35968 20-1356): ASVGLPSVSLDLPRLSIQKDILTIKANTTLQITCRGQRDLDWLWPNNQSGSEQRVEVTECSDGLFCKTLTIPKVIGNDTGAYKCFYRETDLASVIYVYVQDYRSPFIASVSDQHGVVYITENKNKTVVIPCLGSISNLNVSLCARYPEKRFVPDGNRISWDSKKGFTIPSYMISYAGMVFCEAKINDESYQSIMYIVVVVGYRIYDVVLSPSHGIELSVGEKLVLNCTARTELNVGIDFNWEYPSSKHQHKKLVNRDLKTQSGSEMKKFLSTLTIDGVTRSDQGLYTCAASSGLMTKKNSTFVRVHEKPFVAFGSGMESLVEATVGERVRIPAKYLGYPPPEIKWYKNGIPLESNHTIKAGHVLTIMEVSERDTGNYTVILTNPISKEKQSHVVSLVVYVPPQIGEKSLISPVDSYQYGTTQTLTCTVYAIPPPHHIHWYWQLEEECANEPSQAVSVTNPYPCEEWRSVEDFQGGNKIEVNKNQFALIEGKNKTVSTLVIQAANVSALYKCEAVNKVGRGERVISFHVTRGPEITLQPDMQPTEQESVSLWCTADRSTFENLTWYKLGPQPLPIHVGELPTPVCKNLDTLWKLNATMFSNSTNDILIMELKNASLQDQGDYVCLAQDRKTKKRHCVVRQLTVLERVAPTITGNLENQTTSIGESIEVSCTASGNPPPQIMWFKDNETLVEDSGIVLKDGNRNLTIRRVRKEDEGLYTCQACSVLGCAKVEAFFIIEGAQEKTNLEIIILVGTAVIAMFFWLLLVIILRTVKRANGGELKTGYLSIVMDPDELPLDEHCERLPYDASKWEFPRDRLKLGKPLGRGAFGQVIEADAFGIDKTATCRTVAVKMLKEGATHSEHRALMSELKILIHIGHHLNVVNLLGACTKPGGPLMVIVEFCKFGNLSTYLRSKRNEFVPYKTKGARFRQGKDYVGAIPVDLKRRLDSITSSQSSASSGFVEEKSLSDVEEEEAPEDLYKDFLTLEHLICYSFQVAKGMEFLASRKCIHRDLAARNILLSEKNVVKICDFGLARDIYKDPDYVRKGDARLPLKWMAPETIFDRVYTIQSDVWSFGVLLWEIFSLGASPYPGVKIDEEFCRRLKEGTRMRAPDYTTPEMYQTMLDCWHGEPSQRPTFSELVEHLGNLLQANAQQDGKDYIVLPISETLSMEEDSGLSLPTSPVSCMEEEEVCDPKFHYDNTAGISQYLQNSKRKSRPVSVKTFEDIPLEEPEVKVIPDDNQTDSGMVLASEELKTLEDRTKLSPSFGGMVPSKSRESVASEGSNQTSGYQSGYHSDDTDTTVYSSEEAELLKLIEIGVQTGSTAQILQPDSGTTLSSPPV
B-Raf, sequence (P15056 whole entry): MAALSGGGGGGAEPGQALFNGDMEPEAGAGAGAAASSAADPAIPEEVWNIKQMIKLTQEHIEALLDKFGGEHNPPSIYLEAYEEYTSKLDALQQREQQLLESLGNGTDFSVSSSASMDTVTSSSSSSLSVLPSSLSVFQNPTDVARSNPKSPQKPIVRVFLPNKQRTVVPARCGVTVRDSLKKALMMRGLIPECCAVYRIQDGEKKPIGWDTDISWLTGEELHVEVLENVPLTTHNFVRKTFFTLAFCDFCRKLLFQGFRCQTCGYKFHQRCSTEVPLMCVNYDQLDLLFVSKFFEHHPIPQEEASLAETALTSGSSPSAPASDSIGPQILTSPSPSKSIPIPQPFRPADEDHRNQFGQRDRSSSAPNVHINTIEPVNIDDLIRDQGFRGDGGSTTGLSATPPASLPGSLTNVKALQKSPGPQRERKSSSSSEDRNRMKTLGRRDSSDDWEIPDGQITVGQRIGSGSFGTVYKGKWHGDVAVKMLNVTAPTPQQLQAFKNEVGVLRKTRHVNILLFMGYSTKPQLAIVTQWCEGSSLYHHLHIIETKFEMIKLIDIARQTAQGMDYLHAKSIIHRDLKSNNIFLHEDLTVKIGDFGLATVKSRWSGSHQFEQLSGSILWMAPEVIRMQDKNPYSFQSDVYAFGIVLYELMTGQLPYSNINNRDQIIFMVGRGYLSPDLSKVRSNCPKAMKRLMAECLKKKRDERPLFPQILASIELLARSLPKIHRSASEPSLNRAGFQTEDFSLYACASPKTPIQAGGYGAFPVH
Src, sequence (P12931 whole entry): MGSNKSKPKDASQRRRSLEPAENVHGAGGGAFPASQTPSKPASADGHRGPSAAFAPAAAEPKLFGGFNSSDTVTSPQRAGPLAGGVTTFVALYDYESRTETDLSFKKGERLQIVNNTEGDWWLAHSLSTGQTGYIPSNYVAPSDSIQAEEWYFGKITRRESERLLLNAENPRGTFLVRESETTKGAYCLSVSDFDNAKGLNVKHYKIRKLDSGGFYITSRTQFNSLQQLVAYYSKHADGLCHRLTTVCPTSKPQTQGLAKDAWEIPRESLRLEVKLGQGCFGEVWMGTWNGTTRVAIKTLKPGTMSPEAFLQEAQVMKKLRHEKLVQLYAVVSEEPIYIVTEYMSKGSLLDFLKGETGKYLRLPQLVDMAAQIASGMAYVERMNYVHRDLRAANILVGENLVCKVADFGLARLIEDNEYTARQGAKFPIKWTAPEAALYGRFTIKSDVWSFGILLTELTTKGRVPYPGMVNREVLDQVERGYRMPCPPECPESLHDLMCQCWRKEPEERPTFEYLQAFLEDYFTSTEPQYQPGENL
Kit, sequence (P10721 26-976): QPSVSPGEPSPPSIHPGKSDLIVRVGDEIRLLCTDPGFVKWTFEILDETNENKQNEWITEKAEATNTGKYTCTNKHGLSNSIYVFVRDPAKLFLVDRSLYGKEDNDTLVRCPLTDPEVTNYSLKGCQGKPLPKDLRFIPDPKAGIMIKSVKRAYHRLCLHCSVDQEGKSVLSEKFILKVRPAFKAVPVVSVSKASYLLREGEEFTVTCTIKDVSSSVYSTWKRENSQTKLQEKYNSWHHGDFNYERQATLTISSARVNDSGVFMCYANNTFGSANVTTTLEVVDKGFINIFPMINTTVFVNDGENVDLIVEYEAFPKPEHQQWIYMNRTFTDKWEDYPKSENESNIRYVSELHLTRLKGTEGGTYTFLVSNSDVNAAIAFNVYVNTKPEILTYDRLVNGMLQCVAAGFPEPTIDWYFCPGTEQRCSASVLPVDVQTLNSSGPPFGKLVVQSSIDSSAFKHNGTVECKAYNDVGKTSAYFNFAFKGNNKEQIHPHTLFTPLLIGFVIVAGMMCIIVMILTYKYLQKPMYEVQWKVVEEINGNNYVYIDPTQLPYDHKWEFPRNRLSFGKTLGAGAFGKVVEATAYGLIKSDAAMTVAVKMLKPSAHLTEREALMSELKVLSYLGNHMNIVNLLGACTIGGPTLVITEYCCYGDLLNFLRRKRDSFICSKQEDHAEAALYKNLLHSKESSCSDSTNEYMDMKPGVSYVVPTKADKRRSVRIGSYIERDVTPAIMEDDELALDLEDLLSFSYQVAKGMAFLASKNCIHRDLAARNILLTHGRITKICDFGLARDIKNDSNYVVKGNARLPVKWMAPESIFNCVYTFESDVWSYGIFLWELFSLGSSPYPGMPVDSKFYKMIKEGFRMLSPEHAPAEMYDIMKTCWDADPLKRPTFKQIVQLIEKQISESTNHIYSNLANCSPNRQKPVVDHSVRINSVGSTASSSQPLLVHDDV
C-Raf, sequence (P04049 whole entry): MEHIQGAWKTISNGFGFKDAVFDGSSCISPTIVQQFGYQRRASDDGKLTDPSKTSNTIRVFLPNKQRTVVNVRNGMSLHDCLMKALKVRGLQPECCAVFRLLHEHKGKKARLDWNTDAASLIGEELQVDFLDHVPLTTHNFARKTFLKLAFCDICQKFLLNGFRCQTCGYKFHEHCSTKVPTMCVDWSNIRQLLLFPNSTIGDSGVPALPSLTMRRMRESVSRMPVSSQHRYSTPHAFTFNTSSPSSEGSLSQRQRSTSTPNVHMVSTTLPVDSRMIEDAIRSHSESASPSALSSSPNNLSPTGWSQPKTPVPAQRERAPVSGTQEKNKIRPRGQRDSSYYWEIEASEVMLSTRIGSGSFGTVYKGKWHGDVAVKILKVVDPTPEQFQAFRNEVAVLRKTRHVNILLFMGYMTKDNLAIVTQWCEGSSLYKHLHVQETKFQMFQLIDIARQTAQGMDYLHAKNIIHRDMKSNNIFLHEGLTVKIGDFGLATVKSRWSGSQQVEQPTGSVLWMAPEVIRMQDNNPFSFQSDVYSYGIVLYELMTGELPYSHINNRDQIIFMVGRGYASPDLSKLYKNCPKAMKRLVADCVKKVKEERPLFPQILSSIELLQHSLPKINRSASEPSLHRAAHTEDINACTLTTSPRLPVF
B-Raf V600E, sequence (P15056 whole entry V600E): as the sequence (P15056 whole entry) above, with V600E counted along it

Cn1cc(-c2cnc3[nH]cc(C(=O)c4c(F)ccc(NS(=O)(=O)C(F)(F)F)c4F)c3c2)cn1 [P-2345, N-{2,4-Difluoro-3-[5-(1-methyl-1H-pyrazol-4-yl)-1H-pyrrolo[2,3-b]pyridine-3-carbonyl]-phenyl}-C,C,C-trifluoro-methanesulfonamide]
≤ 10 µM: [1] | [2] | [3] | [4] | [5] | [6] | [7]

CCCS(=O)(=O)Nc1ccc(F)c(C(=O)c2c[nH]c3ncc(C#CCOC)cc23)c1F [P-2239, Propane-1-sulfonic acid {2,4-difluoro-3-[5-(3-methoxy-prop-1-ynyl)-1H-pyrrolo[2,3-b]pyridine-3-carbonyl]-phenyl}-amide]
not listed: [3] | [12] | [13] | [14]
≤ 10 µM: all other assays above

CCCCS(=O)(=O)Nc1ccc(F)c(C(=O)c2c[nH]c3ncc(-c4ccc(F)cc4)cc23)c1F [P-2301, Butane-1-sulfonic acid {2,4-difluoro-3-[5-(4-fluoro-phenyl)-1H-pyrrolo[2,3-b]pyridine-3-carbonyl]-phenyl}-amide]
≤ 10 µM: [8] | [1] | [2] | [4] | [5] | [6] | [10] | [7]

COc1cnc2[nH]cc(C(=O)c3c(F)ccc(NS(=O)(=O)c4ncn[nH]4)c3F)c2c1 [P-2061, 2H-[1,2,4]Triazole-3-sulfonic acid [2,4-difluoro-3-(5-methoxy-1H-pyrrolo[2,3-b]pyridine-3-carbonyl)-phenyl]-amide]
≤ 10 µM: [1] | [2] | [9] | [4] | [10] | [11] | [7]

CCCS(=O)(=O)Nc1ccc(F)c(C(=O)c2c[nH]c3ncc(-c4ccc(S(=O)(=O)NC5CC5)cc4)cc23)c1F [P-2168, N-Cyclopropyl-4-{3-[2,6-difluoro-3-(propane-1-sulfonylamino)-benzoyl]-1H-pyrrolo[2,3-b]pyridin-5-yl}-benzenesulfonamide]
not listed: [10] | [11] | [12] | [13] | [14]
≤ 10 µM: all other assays above

CCCS(=O)(=O)Nc1ccc(F)c(C(=O)c2c[nH]c3ncc(-c4cn[nH]c4)cc23)c1F [P-2174, Propane-1-sulfonic acid {2,4-difluoro-3-[5-(1H-pyrazol-4-yl)-1H-pyrrolo[2,3-b]pyridine-3-carbonyl]-phenyl}-amide]
not listed: [9] | [10] | [11] | [14]
≤ 10 µM: all other assays above

CCCS(=O)(=O)Nc1ccc(F)c(C(=O)c2c[nH]c3ncc(CCCOC)cc23)c1F [P-2240, propane-1-sulfonic acid {2,4-difluoro-3-[5-(3-methoxy-propyl)-1H-pyrrolo[2,3-b]pyridine-3-carbonyl]-phenyl}-amide]
not listed: [3] | [8] | [12] | [13] | [14]
≤ 10 µM: all other assays above

CCCS(=O)(=O)Nc1ccc(F)c(C(=O)c2c[nH]c3ncc(-c4ccn[nH]4)cc23)c1F [P-2176]
not listed: [9] | [11] | [12] | [13] | [14]
≤ 10 µM: all other assays above

Cn1cc(-c2cnc3[nH]cc(C(=O)c4cc(NS(=O)(=O)c5cccc(F)c5)ccc4F)c3c2)cn1 [P-2105, 3-Fluoro-N-{4-fluoro-3-[5-(1-methyl-1H-pyrazol-4-yl)-1H-pyrrolo[2,3-b]pyridine-3-carbonyl]-phenyl}-benzenesulfonamide]
not listed: [11] | [13]
≤ 10 µM: all other assays above

CCCCS(=O)(=O)Nc1ccc(F)c(C(=O)c2c[nH]c3ncc(-c4cnn(C)c4)cc23)c1F [P-2302, Butane-1-sulfonic acid {2,4-difluoro-3-[5-(1-methyl-1H-pyrazol-4-yl)-1H-pyrrolo[2,3-b]pyridine-3-carbonyl]-phenyl}-amide]
not listed: [9] | [10] | [11] | [13]
≤ 10 µM: all other assays above
